# Read-outs that look alike come from different tables or passages of the source.
# Assays:
# [1] = Description: (§1) In another clinical test five volunteers were chose, all male and smokers, characterized by a strong formation of dental calculus (tartar), especially in the zone of the lingual face of the lower incisors. Each volunteer underwent an application of 200 mg of pure glutathione in powder on the lingual face of the lower incisors by means of a single-tuft toothbrush with medium bristles, followed-by a tooth brushing for ten minutes with the same toothbrush. After a rinse with water the operation was repeated, always for ten minutes using a further 200 mg of glutathione.
# [2] = aqueous solution of 2%, 30° C, without light, tooth rinsed and lightly brushed and solution changed every two days
# Description: The in vitro evaluation of anti-tartar activity was carried out on an extracted tooth. The amount of tartar on said tooth was quantified before the test. The tooth was then immersed. Into an aqueous solution of 2% glutathlone and kept in a closed vessel without light at 30° C. Every two days said tooth was rinsed and lightly brushed and the solution was changed.
# [3] = remark: listed apart in the source
# Description: as §1, with “especially IN” for “especially in”, “of 500” for “of 200”, “bristles, followed by” for “bristles, followed-by”, “further 500” for “further 200”
smiles,measurement,setting,value
N[C@@H](CCC(=O)N[C@@H](CS)C(=O)NCC(=O)O)C(=O)O [glutathione],reduction of dental calculus (tartar),"[1]; all five volunteers, zones where brushing had been carried out, 2 x 200 mg powder, 2 x ten minutes brushing",consistent reduction
same,residual dental calculus (tartar),"[1]; sub-gingival and interstitial zones where brushing had not been properly carried out, 2 x 200 mg",presence of residual dental calculus (tartar)
same,time until removal of tartar was completed,[2],two to three weeks
same,time until removal of tartar was evident,[2],after only four days
same,removal of dental calculus (tartar),"[3]; all five volunteers, zones where brushing had been carried out, 2 x 500 mg powder, 2 x ten minutes brushing",complete removal
same,residual dental calculus (tartar),"[3]; sub-gingival and interstitial zones where brushing had not been properly carried out, 2 x 500 mg",presence of residual dental calculus (tartar)
